Source: PMC5698418 (Nature Communications, 2017)

Legend:
[1] = test system: eIF4E phosphorylation; experiment: Western blot of phospho-eIF4E in primary cortical neurons; type: cell-based, mouse; conditions: CGP 57380 5 µM co-treated 6 h with BDNF
Protocol: For western blot analyses, cells were collected by scraping in ice-cold radioimmunoprecipitation assay (RIPA) buffer (50 mM Tris-HCl (pH 8.0), 300 mM NaCl, 0.5% Igepal-630, 0.5% deoxycholic acid, 0.1% SDS, 1 mM EDTA) supplemented with a cocktail of protease inhibitors (Complete Protease Inhibitor without EDTA, Roche Applied Science, Indianapolis, IN) and phosphatase inhibitors (phosphatase inhibitor cocktail A, Santa Cruz Biotechnology). One volume of 2× Laemmli buffer (100 mM Tris-HCl (pH 6.8), 4% SDS, 0.15% bromophenol blue, 20% glycerol, 200 mM β-mercaptoethanol) was added and the extracts were boiled for 5 min. Samples were adjusted to an equal concentration after protein concentrations were determined using the BCA assay (Pierce, Thermo Fisher Scientific). Lysates were separated using SDS–PAGE and transferred to a nitrocellulose membrane. After transfer, the membrane was blocked in TBST (Tris-buffered saline + 0.1% Tween 20) supplemented with 5% nonfat powdered milk and probed with the indicated primary antibody at 4 °C overnight. After washing with TBST, the membrane was incubated with the appropriate secondary antibody and visualized using enhanced chemiluminescence (ECL) reagents according to the manufacturer’s guidelines (Pierce, Thermo Fisher Scientific). Uncropped scans with molecular weight reference are shown in Supplementary Figs. 10–20.

[2] = test system: Arc protein; experiment: Western blot of total Arc protein in primary cortical neurons; type: cell-based, mouse; conditions: CGP 57380 5 µM co-treated 6 h with BDNF
Protocol: Forebrains of E16.5 C57BL/6 mouse embryos were dissected and then dissociated in trypsin solution for 15 min followed by three washes with phosphate-buffered saline (PBS). Single-cell suspension was achieved by gentle pipet trituration. Neurons were seeded in poly-L-lysine/laminin-coated six-well plates at a density of 2 × 10^6 per well and maintained in neurobasal medium containing B27 supplement (2%, Invitrogen, Grand Island, NY), penicillin (50 units ml^−1, Invitrogen), streptomycin (50 µg ml^−1, Invitrogen), and glutamine (1 mM, Sigma). For experiments involving BDNF (EMD Millipore Corps, Billerica, MA), the stock solution (2 ng µl^−1 in water) was added directly to the culture medium at a final concentration of 100 ng ml^−1 for the indicated period of time.
The following procedure was used to quantify western blots. First, equal quantity of protein lysate was analyzed by SDS–PAGE for each biological replicate. Second, the exposure time of the film to the ECL chemiluminescence was the same for each biological replicate. Third, all the exposed films were scanned on a Brother MFC-J485DW scanner in grayscale at a resolution of 300 dpi. Fourth, the look-up table (LUT) of the scanned tiff images was inverted and the intensity of each band was individually measured using the selection tool and the histogram function in Adobe Photoshop CC 2015 software. […]

With `Nc1ncnc2n[nH]c(Nc3ccc(F)cc3)c12` [CGP 57380] the “effect on eIF4E phosphorylation” value [1] was “impacting eukaryotic translation initiation factor 4E (eIF4E) phosphorylation” and the “effect on BDNF-induced Arc expression (western blot)” value [2] was “did not prevent Arc expression”.
